Experimental data as given in ChEMBL document CHEMBL1150977, “A quantitative analysis of kinase inhibitor selectivity” (Nat Biotechnol, 2008).

What was measured:
[1] = target: T1, Tyrosine-protein kinase TXK (Homo sapiens, UniProt P42681)
T1 sequence (P42681 whole entry): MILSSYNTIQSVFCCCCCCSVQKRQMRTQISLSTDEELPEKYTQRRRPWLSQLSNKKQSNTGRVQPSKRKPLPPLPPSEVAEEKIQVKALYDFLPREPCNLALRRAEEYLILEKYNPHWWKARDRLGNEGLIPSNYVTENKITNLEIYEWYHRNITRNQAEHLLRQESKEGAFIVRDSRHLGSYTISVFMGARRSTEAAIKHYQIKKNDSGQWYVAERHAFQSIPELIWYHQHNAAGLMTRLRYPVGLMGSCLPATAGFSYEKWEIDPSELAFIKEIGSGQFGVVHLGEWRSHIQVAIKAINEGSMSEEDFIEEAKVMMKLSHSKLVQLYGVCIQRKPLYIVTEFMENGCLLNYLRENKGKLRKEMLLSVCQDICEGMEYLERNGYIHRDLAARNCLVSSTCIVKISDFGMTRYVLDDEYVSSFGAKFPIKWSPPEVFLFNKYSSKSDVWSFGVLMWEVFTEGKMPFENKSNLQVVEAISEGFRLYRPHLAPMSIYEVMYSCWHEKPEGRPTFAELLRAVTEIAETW

[2] = target: T2, MAP kinase-activated protein kinase 5 (Homo sapiens, UniProt Q8IW41)
T2 sequence (Q8IW41 whole entry): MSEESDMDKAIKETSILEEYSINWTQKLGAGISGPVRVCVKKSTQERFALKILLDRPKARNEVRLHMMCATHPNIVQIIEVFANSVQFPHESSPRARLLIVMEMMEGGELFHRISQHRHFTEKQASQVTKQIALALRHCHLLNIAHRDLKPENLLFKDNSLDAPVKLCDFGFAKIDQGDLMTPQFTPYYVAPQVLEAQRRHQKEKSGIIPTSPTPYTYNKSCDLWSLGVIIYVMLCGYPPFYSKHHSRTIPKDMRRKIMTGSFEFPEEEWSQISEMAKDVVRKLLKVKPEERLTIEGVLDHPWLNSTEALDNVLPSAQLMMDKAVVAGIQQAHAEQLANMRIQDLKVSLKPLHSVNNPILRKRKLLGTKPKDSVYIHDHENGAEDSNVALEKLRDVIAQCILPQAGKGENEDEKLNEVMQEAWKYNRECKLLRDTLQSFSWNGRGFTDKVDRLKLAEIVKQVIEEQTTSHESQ

[3] = target: T3, Serine/threonine-protein kinase Nek2 (Homo sapiens, UniProt P51955)
T3 sequence (P51955 whole entry): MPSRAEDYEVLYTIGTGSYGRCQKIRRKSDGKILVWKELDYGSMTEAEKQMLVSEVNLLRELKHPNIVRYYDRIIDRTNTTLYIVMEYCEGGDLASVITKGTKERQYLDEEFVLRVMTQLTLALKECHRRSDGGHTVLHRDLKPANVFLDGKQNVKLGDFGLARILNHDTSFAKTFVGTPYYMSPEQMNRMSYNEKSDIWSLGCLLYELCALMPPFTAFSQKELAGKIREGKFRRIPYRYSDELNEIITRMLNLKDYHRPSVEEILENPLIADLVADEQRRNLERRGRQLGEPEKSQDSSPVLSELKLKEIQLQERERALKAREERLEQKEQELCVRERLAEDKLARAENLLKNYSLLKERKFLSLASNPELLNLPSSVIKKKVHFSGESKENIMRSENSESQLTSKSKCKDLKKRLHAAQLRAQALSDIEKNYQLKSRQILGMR

[4] = target: Tyrosine-protein kinase ABL2 (Homo sapiens, UniProt P42684)
Sequence of Tyrosine-protein kinase ABL2 (P42684 whole entry): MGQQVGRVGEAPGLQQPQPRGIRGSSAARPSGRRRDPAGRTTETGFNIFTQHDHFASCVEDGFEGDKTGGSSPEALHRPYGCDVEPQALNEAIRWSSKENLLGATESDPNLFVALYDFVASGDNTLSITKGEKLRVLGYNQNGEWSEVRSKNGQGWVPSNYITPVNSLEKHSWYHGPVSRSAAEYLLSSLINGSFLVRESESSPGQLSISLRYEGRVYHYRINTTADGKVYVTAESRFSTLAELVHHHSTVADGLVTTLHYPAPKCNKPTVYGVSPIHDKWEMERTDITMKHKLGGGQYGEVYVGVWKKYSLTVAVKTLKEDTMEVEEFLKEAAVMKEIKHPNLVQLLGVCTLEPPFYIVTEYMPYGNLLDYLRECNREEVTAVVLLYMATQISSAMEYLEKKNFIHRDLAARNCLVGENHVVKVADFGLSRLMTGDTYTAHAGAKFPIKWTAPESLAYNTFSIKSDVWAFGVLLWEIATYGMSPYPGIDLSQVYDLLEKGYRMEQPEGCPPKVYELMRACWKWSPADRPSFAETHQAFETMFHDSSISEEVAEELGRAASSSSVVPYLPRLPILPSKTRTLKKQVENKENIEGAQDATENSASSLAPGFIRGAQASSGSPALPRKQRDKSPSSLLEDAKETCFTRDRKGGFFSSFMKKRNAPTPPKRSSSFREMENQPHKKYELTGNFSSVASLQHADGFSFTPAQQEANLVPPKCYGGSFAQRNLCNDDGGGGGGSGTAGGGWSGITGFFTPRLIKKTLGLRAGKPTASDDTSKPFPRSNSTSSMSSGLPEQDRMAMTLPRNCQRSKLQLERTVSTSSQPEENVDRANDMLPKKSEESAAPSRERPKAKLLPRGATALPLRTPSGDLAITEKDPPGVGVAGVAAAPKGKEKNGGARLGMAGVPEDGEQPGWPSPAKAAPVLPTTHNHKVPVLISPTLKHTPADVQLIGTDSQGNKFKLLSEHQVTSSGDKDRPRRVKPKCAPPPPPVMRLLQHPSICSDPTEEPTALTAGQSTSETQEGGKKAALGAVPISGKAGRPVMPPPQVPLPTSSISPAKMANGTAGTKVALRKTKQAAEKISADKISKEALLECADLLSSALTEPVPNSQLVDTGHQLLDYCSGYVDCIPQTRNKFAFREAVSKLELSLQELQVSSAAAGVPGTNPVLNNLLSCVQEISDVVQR

[5] = target: T4, Tyrosine-protein kinase receptor UFO (Homo sapiens, UniProt P30530)
T4 sequence (P30530 whole entry): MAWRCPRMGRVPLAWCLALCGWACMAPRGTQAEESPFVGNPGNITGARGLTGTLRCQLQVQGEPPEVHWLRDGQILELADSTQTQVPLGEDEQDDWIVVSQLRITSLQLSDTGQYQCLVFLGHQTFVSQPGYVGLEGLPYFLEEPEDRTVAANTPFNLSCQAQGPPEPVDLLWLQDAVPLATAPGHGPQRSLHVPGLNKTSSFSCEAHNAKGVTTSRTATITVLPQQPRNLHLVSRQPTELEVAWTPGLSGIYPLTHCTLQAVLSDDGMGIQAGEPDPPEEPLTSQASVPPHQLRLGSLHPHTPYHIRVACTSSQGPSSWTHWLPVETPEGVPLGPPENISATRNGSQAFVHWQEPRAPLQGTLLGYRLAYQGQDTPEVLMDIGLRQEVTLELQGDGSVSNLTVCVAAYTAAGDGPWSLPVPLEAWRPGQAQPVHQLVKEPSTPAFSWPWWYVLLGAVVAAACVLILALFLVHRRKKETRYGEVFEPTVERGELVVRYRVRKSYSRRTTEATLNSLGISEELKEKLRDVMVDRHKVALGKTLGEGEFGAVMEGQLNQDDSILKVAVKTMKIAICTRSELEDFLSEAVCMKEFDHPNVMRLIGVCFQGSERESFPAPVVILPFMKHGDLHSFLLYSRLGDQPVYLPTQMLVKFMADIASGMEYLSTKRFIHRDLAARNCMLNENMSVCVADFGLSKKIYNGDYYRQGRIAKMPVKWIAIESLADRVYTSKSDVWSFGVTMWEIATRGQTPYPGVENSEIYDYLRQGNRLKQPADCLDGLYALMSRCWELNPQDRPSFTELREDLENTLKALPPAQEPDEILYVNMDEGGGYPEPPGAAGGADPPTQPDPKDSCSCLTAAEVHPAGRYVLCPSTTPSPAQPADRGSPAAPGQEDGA

Compound | Kd [1] | Kd [2] | Kd [3] | Kd [4] | Kd [5]
COCC(=O)NC/C=C/c1ccc2ncnc(Nc3ccc(Oc4ccc(C)nc4)c(C)c3)c2c1 [CP-724714] | > 10 µM | > 10 µM | > 10 µM | > 10 µM | > 10 µM
CCOc1cc2ncc(C#N)c(Nc3ccc(F)c(Cl)c3)c2cc1NC(=O)/C=C/CN(C)C [PELITINIB] | 5.5 µM | > 10 µM |  |  | 0.92 µM
NC(=O)c1ccc(-c2nc(-c3ccc4c(c3)OCO4)c(-c3ccccn3)[nH]2)cc1 [SB-431542] | > 10 µM | > 10 µM | > 10 µM | > 10 µM | > 10 µM
Nc1nc(Nc2ccc(S(N)(=O)=O)cc2)nn1C(=O)c1c(F)cccc1F [JNJ-7706621] | > 10 µM | > 10 µM |  | > 10 µM | 
Oc1ccc(-c2nc(-c3ccncc3)c(-c3ccc(F)cc3)[nH]2)cc1 [SB-202190] | > 10 µM | > 10 µM | > 10 µM | > 10 µM | > 10 µM
